Assays:
[1] = tested on: Isolated Perfused Rat Heart; assay: Isolated perfused heart studies (Langendorff), retention of tracer; set-up: species or system male Sprague Dawley rats; details: radioactivity 40 minutes after end of 20 minute infusion divided by peak, n=4
Procedure: Hearts were excised from male Sprague Dawley rats (275-325 g) and were perfused retrogradely using the Langendorff method (O. Langendorff, Pfleugers Arch. ges. Physiol, 61, 291, […]) with modifications described previously (W. Rumsey, D. F. Wilson and M. Erecinska, Am. J. Physiol., 253 (Heart Circ. Physiol. 22): H1098, 1987) in the isolated state at 37° C. with Krebs-Henseleit buffer. The perfusate contained [in mM] NaCl, KCl [4.7], CaCl2 [1.8], Na2EDTA [0.5], KH2PO4 [1.2], MgSO4 [1.2], NaHCO3 [25], glucose, pyruvate [0.2], and insulin (12 IU/L) and was equilibrated with O2:CO2 (95:5) (global normoxia) or N2:CO2 (95:5) (global hypoxia). The hearts were paced continuously at 5 Hz. […]
For determination of oxygen consumption, a cannula was placed in the right ventricle via the pulmonary artery. A pump removed a small fraction of the coronary effluent at 1 mL/min., and its oxygen concentration was monitored continuously by an in-line Clark-type electrode. […] Coronary flow was measured by collecting the effluent from the right and left pulmonary arteries in a 10 mL graduated cylinder. Oxygen consumption was calculated from the product of the influent-effluent oxygen concentration difference and the coronary flow. During perfusion with hypoxic medium, only the effluent oxygen concentration was recorded. […]

[2] = tested on: Calcium-tolerant ventricular myocytes; assay: Isolated cardiac myocyte studies, retention of radioactivity; type: cell-based, male Sprague Dawley rats; details: for Oil: dibutyl phthalate layer; for Oil / PCA Pellet / Cell Pellet: means ±S.E.M.; for PCA Pellet: perchloric acid-precipitated pellet; for Cell Pellet: whole cells passed through dibutyl phthalate; for percentage of activity associated with the protein/membrane fragments: cells disrupted by freezing and thawing (3×)
Excerpt: Calcium-tolerant ventricular myocytes were isolated from hearts of male Sprague Dawley rats (200 g) according to the procedure of Wittenberg and Robinson (B. A. Wittenberg and T. F. Robinson, Cell Tissue Res., 216: 231, 1981) with modifications described previously (W. Rumsey, C. Schlosser, E. M. Nuutinen, M. Robiolio and D. F. Wilson, J. Biol. Chem., 265 (26): 15392, 1990). Cells were used immediately following morphological analysis (using a hemocytometer) of viability and were maintained at 37° C. during the experiments. The number of quiescent, rod shaped cells ranged from 70-90% within a total population of 5-9×10^6 cells.
The isolated myocytes were maintained in either a normoxic, hypoxic or anoxic state. Hypoxia was induced by providing an atmosphere of argon atop of the cells and sealing the flask during the incubation period. Glucose oxidase plus catalase (5/5 mg) was added to argon treated cells to provide anoxia. Cells were suspended (6.5-7.5×10^4 cells/ml) in isolation media and aliquots were added to incubation vials maintained at 37° C.
After incubation with a test compound, myocytes were deproteinated with 1% ice-cold perchloric acid and centrifuged at 12,000 rpm for 30 sec. The supernatent was separated from the pellet and each counted using a LKB 1282 gamma counter. Alternatively, myocytes were separated from the suspending media by passing the cells through 99% dibutyl phthalate by centrifugation at 12,000 rpm for 30 sec. The three phases were separated and counted as described above. Results for the Tc-99m complex of the compound in Example 1 are given below:
Values represent means ±S.E.M. for the number of experiments noted in the parentheses. The values are the percent of total radioactivity represented by each case. PCA pellet=perchloric acid-precipitated pellet which represents the activity associated with proteins/membranes. Cell pellet=whole cells passed through a layer of dibutyl phthalate (oil).
Several Tc-99m complexes were examined in isolated myocytes using the protocol described above. The percentage of activity retained in the cell pellet was determined under anoxic and normoxic states.

[3] = tested on: Bovine brain microvessel endothelial cells; assay: Ability to cross endothelial monolayers (permeability index); type: in vitro ADME; details: permeability index from PSe, endothelial monolayer, compared with ^3H-water and ^14C-sucrose, first 10 minutes, 37° C.
Procedure: The model consists of a cultured monolayer of bovine brain endothelial cells, which form tight intercellular junctions. […] The rate of transit is compared with ^3H2O (a highly permeable tracer) and ^14C-sucrose (a non-permeable tracer).
Bovine brain microvessel endothelial cells were isolated using a modification of the Audus-Borchardt method (K. L. Audus et al., Ann. New York Acad. Sci., 1988; 9-18). […]
This system was placed into a 37° C., 5% CO2 incubator which contains an orbiting tissue culture plate shaker for agitation and 10 μL samples, from both inside (donor) and outside (acceptor) compartments, were taken simultaneously from a set of 4 Anocell inserts. These samples were counted first in a Gamma counter then, after 72 hours, in a scintillation counter with dual channel capabilities. The fraction of radioactivity transported from the donor to the acceptor wells at each time point over the first 10 minutes of the study was calculated. The average percent of radioactivity transported was plotted vs. time and the slope was estimated by linear regression analysis. […] The permeability index (Pi) is calculated using the PSe for each agent as follows: [formula]

[4] = Anoxia (Glucose Oxidase) (n = 4)
[5] = isolated myocytes, several Tc-99m complexes
[6] = separate study, number of experiments in parentheses

Substance: [^99mTc]Oxo[[3,3,9,9-tetramethyl-1-(2-nitro-1H-imidazo-1-yl)-4,8-diazaundecane-2,10-dione dioximato]-(3-)-N,N′,N″,N′″]technetium(V) [^99mTc complex from ligand in Ex. 1]
- % Retention of Tracer in the Isolated Perfused Rat Heart, Hypoxia ([1]; N2:CO2 (95:5)): 65.3 ± 3%
- % Retention of Tracer in the Isolated Perfused Rat Heart, Normoxia ([1]; O2:CO2 (95:5)): 33.5 ± 2.5%
- Anoxia/normoxia [2]: 2.7
- Anoxia/normoxia ratio [2]: 2.3
- Hypoxia/normoxia [2]: 1.7
- Oil [2, 4]: 9.0 ± 2.6% of total radioactivity
- PCA Pellet [2, 4]: 55.5 ± 5.8% of total radioactivity
- Cell Pellet [2, 4]: 48.8 ± 4.2% of total radioactivity
- Oil ([2]; Hypoxia (Argon) (n = 4)): 20.1 ± 5.3% of total radioactivity
- PCA Pellet ([2]; Hypoxia (Argon) (n = 4)): 48.5 ± 3.4% of total radioactivity
- Cell Pellet ([2]; Hypoxia (Argon) (n = 4)): 36.9 ± 8.8% of total radioactivity
- Oil ([2]; Normoxia (n = 5)): 22.8 ± 2.2% of total radioactivity
- PCA Pellet ([2]; Normoxia (n = 5)): 40.5 ± 2.7% of total radioactivity
- Cell Pellet ([2]; Normoxia (n = 5)): 23.2 ± 3.7% of total radioactivity
- percentage of activity associated with the protein/membrane fragments ([2]; anoxic (glucose oxidase), n=3): 25.3±2.5%
- percentage of activity associated with the protein/membrane fragments ([2]; normoxic, n=3): 23.3±0.8%
- % in Cell Pellet, Anoxia [2, 5]: 53.0 ± 2.2%
- % in Cell Pellet, Normoxia [2, 5]: 24.1 ± 2.3%
- effect of FCCP (uncoupler) on retention ([2]; normoxic cells): had no effect on the retention
- effect of cyanide on retention ([2]; normoxic cells, n=3): had no effect on retention in normoxic cells
- uptake in isolated myocytes, Anoxia [2, 6]: 48 ± 6 (3)
- uptake in isolated myocytes, Hypoxia [2, 6]: 30 ± 7 (3)
- uptake in isolated myocytes, Normoxia [2, 6]: 18 ± 1 (3)
- Pi [3]: 63.2

From patent publication US6958141B2, “Rhenium and technetium complexes containing a hypoxia-localizing moiety” (Bracco International B.V., priority 1991, dated 2005)
